Molecular target: T1, full-length human PAFR (Homo sapiens, UniProt P25105)
T1 construct: PAFR was derived from membranes from CHO cells over-expressing the full-length human PAFR; expressed in transfected cells; host or cells: CHO cells (membranes)
Assay: PAF Binding Assay
Settings: for IC50: 3H-PAF competition, membranes from CHO cells over-expressing human PAFR, SPA beads
Experimental: PAFR was derived from membranes from CHO cells over-expressing the full-length human PAFR. Supernatant from the cell homogenate pellet (3000×g) is pelleted (35000×g), and the resulting pellet is resuspended in a Tris HCl buffer (50 mM Iris HCl pH 7.4, 5 mM MgCl2, 30% glycerol) to afford a parent PAFR stock that is diluted in PAF binding buffer (50 mM HEPES pH 7.0, 10 mM MgCl2, 5 mM CaCl2, 5 mM D-(+)glucose, 0.25% fatty-acid free BSA) to afford a PAFR assay stock (120 μg/mL) prior to each use.
Binding buffer (48 μL) and competitor compound (i.e., the compound to be tested) in DMSO (2 μL) were added to a 96-well plate. Cold PAF C-18 (200 nM final concentration) was used to determine non-specific binding. 25000 cpm of ^3H-PAF (25 μL of a stock solution in PAF binding buffer) was added to all wells, and the plates sealed and shaken at rt for 5 min. PAFR assay stock (3 μg/well) was added, and the plate was sealed and shaken at rt for 2 h. SPA beads^1 (10 μL of a 25 mg/mL suspension in binding buffer) were added to all wells, and the plates were sealed and shaken for 30 min. The plates were centrifuged (1900 rpm for 5 min.), allowed to stand for 30 min. and read on a Microbeta TriLux counter.
Specific binding is defined as total binding minus non-specific binding. Total binding was the amount of ^3H-PAF bound to SPA beads in the absence of competitor; non-specific binding was ^3H-PAF bound in the presence of 30 μM Compound A.^2 The IC50 values were obtained by computer analysis of the experimental data.^3 Percent inhibition was calculated as 100−[(Sample-Non-specific bound)/(Total bound Non-specific bound)×100]

T1 sequence (P25105 whole entry): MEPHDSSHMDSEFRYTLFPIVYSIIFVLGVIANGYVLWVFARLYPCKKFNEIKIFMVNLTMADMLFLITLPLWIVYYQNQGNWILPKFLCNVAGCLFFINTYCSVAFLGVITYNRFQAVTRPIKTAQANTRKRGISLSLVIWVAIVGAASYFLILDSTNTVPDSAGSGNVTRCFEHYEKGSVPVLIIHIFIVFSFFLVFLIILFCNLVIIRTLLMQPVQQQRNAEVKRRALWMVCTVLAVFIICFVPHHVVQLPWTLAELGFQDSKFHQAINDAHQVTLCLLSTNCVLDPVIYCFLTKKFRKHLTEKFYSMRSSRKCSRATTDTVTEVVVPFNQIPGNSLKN

Row | SMILES | IC50 | IC50 results in the PAF Binding Assay, slower vs faster eluting enantiomer (comparison of the resolved enantiomers, in words)
1 | CC(C)n1c(-c2ccc(OC(F)(F)F)cc2)nc2cc(C(=O)N3CCC(c4cccnc4)C3)ccc21 (single isomer, unassigned) [Example 1Ar, 1-isopropyl-5-[(3-pyridin-3-ylpyrrolidin-1-yl)carbonyl]-2-[4-(trifluoromethoxy)phenyl]-1H-benzimidazole] | 2 nM | faster eluting enantiomer was preferred
2 | CC(C)c1nc2cc(C(=O)N3CCC(c4cccnc4)C3)ccc2n1-c1ccc(OC(F)(F)F)cc1 (single isomer, unassigned) [Example 1c, 2-isopropyl-5-[(3-pyridin-3-ylpyrrolidin-1-yl)carbonyl]-1-[4-(trifluoromethoxy)phenyl]-1H-benzimidazole] | 11 nM | –
3 | CC1(n2c(-c3ccc(OC(F)(F)F)cc3)nc3cc(C(=O)N4CCC(c5cccnc5)C4)ccc32)CC1 (stereo not drawn) [Example 1Gr, 1-(1-methylcyclopropyl)-5-[(3-pyridin-3-ylpyrrolidin-1-yl)carbonyl]-2-[4-(trifluoromethoxy)phenyl]-1H-benzimidazole] | 10 nM | –
4 | O=C(c1ccc2c(c1)nc(-c1ccc(OC(F)(F)F)cc1)n2C1CCC1)N1CCC(c2cccnc2)C1 (stereo not drawn) [Example 1Fr, 1-cyclobutyl-5-[(3-pyridin-3-ylpyrrolidin-1-yl)carbonyl]-2-[4-(trifluoromethoxy)phenyl]-1H-benzimidazole] | 9 nM | –
5 | CC(C)n1c(-c2ccc(OC(F)(F)F)cc2)nc2cc(C(=O)N3CCC(O)(c4cccnc4)C3)ccc21 (stereo not drawn) [Example 1Qa, 1-({1-isopropyl-2-[4-(trifluoromethoxy)phenyl]-1H-benzimidazol-5-yl}carbonyl)-3-pyridin-3-ylpyrrolidin-3-ol] | 9 nM | –
